Test results: patent US10221420B2, “Aptamer construct” (priority 2014, dated 2019)

Legend:
HT29 cells [1] = experiment: Tumoursphere formation assay (CSC frequency analysis in vitro); assay type: cell-based, human; details: HT29, 96-well, lower seeding dose (10 or 5 cells/well), versus PBS control
Method: Cells were harvested at 80% confluence with trypsin digestion and resuspended as single cells in DMEM/F12 serum-free media following centrifugation (1000×g for 5 min). Cells were plated into 96-well ultralow attachment plates at a density of 5, 10, 50, 100, 500, and 1000 cells per well, or at 4000 cells /well in 6-well ultralow attachment plates for tumoursphere formation. Three experiment groups were used: tumoursphere medium control, free DOX treatment (1, 1.5 and 2 μM) and aptamer-Dox treatment (1, 1.5 and 2 μM equivalent to the same concentration of free DOX). After incubation for 24 h at 37° C. supernatant was removed and replaced with equal volume of fresh CSC medium. A tumoursphere was defined as a cell aggregate with a diameter of over 50 μm with well defined borders. Tumoursphere formation frequency and size were recorded 3 days after seeding. The frequency of CSCs was calculated using the ELDA website (http://bioinf.wehi.edu.au/software/elda/index.html. The tumoursphere formation frequency in 6-well incubation was calculated according to the formula F=Numbers of forming tumourspheres/Number of single cells plated (F is the tumoursphere formation frequency).

HT29 cells [2] = experiment: Internalisation of aptamer-Dox conjugate by confocal microscopy; assay type: cell-based, human
Method: Both HT29 and HEK293T were seeded at […] cells per well in 8-chamber slide for 24 h in preparation for confocal microscopy. Cells were incubated with blocking buffer (PBS with 10% FCS, 1 mg/mL BSA, 0.1 mg/mL tRNA) for 20 min, followed by washing twice with washing buffer (PBS containing 5% FBS, 2.5 mM MgCl2, and 5 mM NaCl) prior to incubation with 200 nM aptamer, negative-control aptamer, aptamer-Dox conjugate or […] Bisbenzimide Hoechst 33342 (3 mg/ml) (Sigma)) was added to the cells during the final 15 min of incubation. The aptamer solution was removed and the cells were washed three times for 5 min each in PBS prior to visualisation using a FluoView FV10i laser scanning confocal microscope (Olympus).

[3] = molecular target: T1, CD133 expressed on HT29 cells (Homo sapiens, UniProt O43490); experiment: Equilibrium dissociation constant by flow cytometry on CD133 positive HT29 cells; assay type: binding; details: Cy5 labelled
T1 construct: host or cells: HT-29 human colorectal cancer cells
T1 sequence (O43490 20-865): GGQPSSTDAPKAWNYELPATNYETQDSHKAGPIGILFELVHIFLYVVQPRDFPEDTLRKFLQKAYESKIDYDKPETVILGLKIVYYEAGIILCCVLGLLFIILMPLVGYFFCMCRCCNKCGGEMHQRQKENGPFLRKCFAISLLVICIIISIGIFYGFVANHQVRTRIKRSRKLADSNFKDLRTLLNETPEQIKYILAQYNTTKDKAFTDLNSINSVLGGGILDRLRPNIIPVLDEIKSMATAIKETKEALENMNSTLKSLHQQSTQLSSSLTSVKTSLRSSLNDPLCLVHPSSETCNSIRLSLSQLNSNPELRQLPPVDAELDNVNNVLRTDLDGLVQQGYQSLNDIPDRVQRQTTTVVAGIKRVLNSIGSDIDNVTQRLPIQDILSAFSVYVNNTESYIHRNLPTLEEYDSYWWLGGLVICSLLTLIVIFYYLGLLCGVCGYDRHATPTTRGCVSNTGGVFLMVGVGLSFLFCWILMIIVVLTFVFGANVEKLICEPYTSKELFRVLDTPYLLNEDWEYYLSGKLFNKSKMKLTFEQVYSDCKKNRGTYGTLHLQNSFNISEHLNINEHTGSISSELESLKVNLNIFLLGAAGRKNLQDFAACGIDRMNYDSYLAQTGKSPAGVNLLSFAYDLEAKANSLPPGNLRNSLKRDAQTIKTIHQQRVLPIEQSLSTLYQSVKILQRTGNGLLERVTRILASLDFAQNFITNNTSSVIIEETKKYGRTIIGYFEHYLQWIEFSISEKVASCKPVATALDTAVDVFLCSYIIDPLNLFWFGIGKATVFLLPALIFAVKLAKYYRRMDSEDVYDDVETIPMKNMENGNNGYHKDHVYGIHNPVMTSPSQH
Method: (§1) To minimize the non-specific binding, 1×10^5 HT29 or HEK293T cells were first incubated with blocking buffer (PBS with 10% FCS, 1% BSA and 1% tRNA) for 20 min. Cells were then washed twice with washing buffer (PBS containing 5% FBS and 2.5 mM MgCl2) and incubated on ice for 1 h with either CD133 aptamer, negative-control aptamer, CD133 aptamer-Dox conjugate or negative-control aptamer-Dox conjugate, all labelled with Cy5 in conjugation buffer (50 mM NaCl, and 2.5 mM MgCl2).
Prior to flow cytometric analysis, cells were again washed twice with washing buffer and then suspended in 150 μl washing buffer. Data was then collected using the flow cytometer (FACS CANTOII, Becton Dickerson) to measure the fluorescence intensity of the aptamer and the binding affinity was determined by normalising the fluorescence intensity with the fluorescent background from that of the negative-control aptamer and then derived using Graph Pad Prism software.

CD133 (prominin-1) [4] = molecular target: T2, CD133 (prominin-1) (UniProt O43490 O43490:20-865); experiment: flow; HT29 cells, 50 mM NaCl, 2.5 mM MgCl2, on ice 1 h; CD133-negative HEK293T gave KD >1000 nM; details: tags: native CD133 on HT-29 colorectal cancer cells (ATCC); label: Cy5; hairpin with 10-bp DNA stem
T2 sequence: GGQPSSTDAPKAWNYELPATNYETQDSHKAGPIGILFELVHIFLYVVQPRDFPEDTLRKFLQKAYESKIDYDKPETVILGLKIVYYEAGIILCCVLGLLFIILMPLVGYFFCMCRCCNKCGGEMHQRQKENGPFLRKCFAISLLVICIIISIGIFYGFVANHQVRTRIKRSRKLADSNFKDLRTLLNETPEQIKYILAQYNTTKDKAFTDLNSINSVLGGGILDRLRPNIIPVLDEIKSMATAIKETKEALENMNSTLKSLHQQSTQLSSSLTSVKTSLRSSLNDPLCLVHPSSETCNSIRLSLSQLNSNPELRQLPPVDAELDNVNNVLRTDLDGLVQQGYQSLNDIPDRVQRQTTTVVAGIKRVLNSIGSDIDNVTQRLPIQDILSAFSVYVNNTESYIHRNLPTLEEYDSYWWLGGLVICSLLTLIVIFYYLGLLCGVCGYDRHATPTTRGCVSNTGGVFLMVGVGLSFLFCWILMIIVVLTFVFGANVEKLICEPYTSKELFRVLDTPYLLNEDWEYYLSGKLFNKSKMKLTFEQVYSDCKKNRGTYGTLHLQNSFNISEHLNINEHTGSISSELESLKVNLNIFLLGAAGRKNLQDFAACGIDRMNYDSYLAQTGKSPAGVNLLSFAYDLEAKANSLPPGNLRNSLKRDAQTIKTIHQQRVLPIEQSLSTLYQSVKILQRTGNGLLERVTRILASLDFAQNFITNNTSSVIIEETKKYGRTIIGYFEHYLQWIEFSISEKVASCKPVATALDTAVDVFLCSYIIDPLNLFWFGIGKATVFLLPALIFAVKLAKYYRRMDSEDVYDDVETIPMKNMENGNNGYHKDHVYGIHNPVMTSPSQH
Method: as §1, with “Determination of the Equilibrium Dissociation Between the Aptamer-Dox Conjugate and its Target Cells To” for “To”
(§2) To determine whether the conjugation of DOX impedes binding affinity and specificity of the aptamer to CD133 the fluorescently labelled Cy5 aptamer-Dox conjugate was incubated with HT29 colorectal cancer cells and the equilibrium dissociation constant (K_D) was determined via flow cytometric analysis (FIG. 6).
Two cell lines, HT29 and HEK293T, were chosen for the study. […] To ascertain that CD133 aptamer binds to CD133 via specific molecular interaction rather than a non-specific binding between a nucleic acid and CD133, the experiments were repeated with a negative control aptamer-Dox conjugate (FIG. 6B). This negative control aptamer has the identical nucleic acid sequence as the positive aptamer with the exception of a 2'-O-methyl modification instead of a 2'-fluoro chemical modification.

CD133 (prominin-1) [5] = molecular target: T2, CD133 (prominin-1); experiment: flow; HT29 cells, 50 mM NaCl, 2.5 mM MgCl2, on ice 1 h; details: tags: native CD133 on HT-29 colorectal cancer cells (ATCC); label: Cy5; hairpin with 10-bp DNA stem
Method: as §1, with “Determination of the Equilibrium Dissociation Between the Aptamer-Dox Conjugate and its Target Cells To” for “To”
as §2

COc1cccc2c1C(=O)c1c(O)c3c(c(O)c1C2=O)C[C@@](O)(C(=O)CO)C[C@@H]3O[C@H]1C[C@H](N)[C@H](O)[C@H](C)O1 [free DOX, doxorubicin]
frequency of tumoursphere formation (HT29 cells [1]): no significant decrease

5′-mCGmCGmCGmCmCGmCA(2′fC)G(2′-fU)A(2′fU)A(2′fC)(2′fU)A(2′fU)GmCGGmCGmCGmCG-(inv dT)-3′ (SEQ ID NO:5) (CGCGCGCCGCACGUAUACUAUGCGGCGCGCGT; 2'-F, 5-methyl-dC modifications; 3' inverted dT; a synthetic aptamer against CD133; modified_base (1)..(1) 5-methyl deoxycytidine; modified_base (3)..(3) 5-methyl deoxycytidine; modified_base (5)..(5) 5-methyl deoxycytidine; modified_base (7)..(8) 5-methyl deoxycytidine; modified_base (10)..(10) 5-methyl deoxycytidine; modified_base (12)..(12) 2′-fluoro 5-methyl deoxycytidine; modified_base (14)..(14) 2′-fluoro deoxyuridine; modified_base (16)..) [CD133 aptamer, hybrid RNA/DNA CD133 aptamer; RNA stem replaced with a 10-bp DNA stem containing 5′methyl-dC]
internalisation (Cy5 aptamer) (HT29 cells [2]): successfully internalised | Kd [3]: 84.8 nM

B1: CD133 aptamer-Dox conjugate (mixed)
RNA: CGCGCGCCGCACGUAUACUAUGCGGCGCGCG
modifications: DNA stem with 5-methyl-dC; 2'-F C and U in RNA loop; 3' inverted dT; doxorubicin intercalated in stem
Kd (CD133 (prominin-1) [4]): 23.9 nM

B2: CD133 RNA/DNA hybrid aptamer, unconjugated (mixed)
RNA: CGCGCGCCGCACGUAUACUAUGCGGCGCGCG
modifications: DNA stem with 5-methyl-dC (all stem C except as printed); 2'-F C and U in RNA loop ACGUAUACUAU; 3' inverted dT
Kd (CD133 (prominin-1) [5]): 84.8 nM
